Assay [1] relates to HeLa. Put plainly: Proliferation assay (crystal violet), HeLa. Conditions: Homo sapiens, 96 h, 4 days, read-out: Inhibition of proliferation IC50 HeLa. It is filed as cell-based. On the procedure:
Cultivated tumor cells (cells were ordered from ATCC, except HeLa-MaTu and HeLa-MaTu-ADR, which were ordered from EPO-GmbH, Berlin) were plated at a density of 1000 to 5000 cells/well, depending on the growth rate of the respective cell line, in a 96-well multititer plate in 200 μL of their respective growth medium supplemented 10% fetal calf serum. After 24 hours, the cells of one plate (zero-point plate) were stained with crystal violet (see below), while the medium of the other plates was replaced by fresh culture medium (200 μl), to which the test substances were added in various concentrations (0 μM, as well as in the range of 0.001-10 μM; the final concentration of the solvent dimethyl sulfoxide was 0.5%). The cells were incubated for 4 days in the presence of test substances. Cell proliferation was determined by staining the cells with crystal violet: the cells were fixed by adding 20 μl/measuring point of an 11% glutaric aldehyde solution for 15 minutes at room temperature. After three washing cycles of the fixed cells with water, the plates were dried at room temperature. The cells were stained by adding 100 μl/measuring point of a 0.1% crystal violet solution (pH 3.0). After three washing cycles of the stained cells with water, the plates were dried at room temperature. The dye was dissolved by adding 100 μl/measuring point of a 10% acetic acid solution. Absorption was determined by photometry at a wavelength of 595 nm. The change of cell number, in percent, was calculated by normalization of the measured values to the absorption values of the zero-point plate (=0%) and the absorption of the untreated (0 μm) cells (=100%). The IC50 values were determined by means of a 4 parameter fit.

Assay [2] concerns the target human kinase Mps-1 (Homo sapiens (Human), UniProt P33981). Put plainly: Mps-1 kinase assay (TR-FRET). The following applies: 10 μM ATP; read-out: Mps1 avg (IC50 [mol/l]). It is filed as biochemical. On the procedure: The human kinase Mps-1 phosphorylates a biotinylated substrate peptide. Detection of the phosphorylated product is achieved by time-resolved fluorescence resonance energy transfer (TR-FRET) from Europium-labelled anti-phospho-Serine/Threonine antibody as donor to streptavidin labelled with cross-linked allophycocyanin (SA-XLent) as acceptor. Compounds are tested for their inhibition of the kinase activity.
N-terminally GST-tagged human full length recombinant Mps-1 kinase (purchased from Invitrogen, Karslruhe, Germany, cat. no PV4071) was used. As substrate for the kinase reaction a biotinylated peptide of the amino-acid sequence biotin-Ahx-PWDPDDADITEILG (C-terminus in amide form, purchased from Biosyntan GmbH, Berlin) was used.
For the assay 50 nl of a 100-fold concentrated solution of the test compound in DMSO was pipetted into a black low volume 384 well microtiter plate (Greiner Bio-One, Frickenhausen, Germany), 2 μl of a solution of Mps-1 in assay buffer [0.1 mM sodium-ortho-vanadate, 10 mM MgCl2, 2 mM DTT, 25 mM Hepes pH 7.7, 0.05% BSA (w/v), 0.001% Pluronic F-127] were added and the mixture was incubated for 15 min at 22° C. to allow pre-binding of the test compounds to Mps-1 before the start of the kinase reaction. Then the kinase reaction was started by the addition of 3 μl of a solution of 16.7 μM adenosine-tri-phosphate (ATP, 16.7 μM=>final conc. in the 5 μl assay volume is 10 μM) and peptide substrate (1.67 μM=>final conc. in the 5 μl assay volume is 1 μM) in assay buffer and the resulting mixture was incubated for a reaction time of 60 min at 22° C. The concentration of Mps-1 in the assay was adjusted to the activity of the enzyme lot and was chosen appropriate to have the assay in the linear range, typical enzyme concentrations were in the range of about 0.5 nM (final conc. in the 5 μl assay volume). The reaction was stopped by the addition of 5 μl of a solution of TR-FRET detection reagents (100 mM Hepes pH 7.4, 0.1% BSA, 40 mM EDTA, 140 nM Streptavidin-XLent [#61GSTXLB, Fa. Cis Biointernational, Marcoule, France], 1.5 nM anti-phospho(Ser/Thr)-Europium-antibody [#AD0180, PerkinElmer LAS, Rodgau-Jugesheim, Germany]. Instead of the 1.5 nM anti-phospho(Ser/Thr)-Europium-antibody a mixture of 2 nM unlabeled anti-phospho ser/thr-pro antibody MPM-2 [Millipore cat. #05-368] and 1 nM LANCE EU-W1024 labeled anti-mouse IgG antibody [Perkin-Elmer, product no. AD0077] can be used).
The resulting mixture was incubated 1 h at 22° C. to allow the binding of the phosphorylated peptide to the anti-phospho(Ser/Thr)-Europium-antibody. Subsequently the amount of phosphorylated substrate was evaluated by measurement of the resonance energy transfer from the Europium-labelled anti-phospho(Ser/Thr) antibody to the Streptavidin-XLent. Therefore, the fluorescence emissions at 620 nm and 665 nm after excitation at 350 nm was measured in a Viewlux TR-FRET reader (PerkinElmer LAS, Rodgau-Jugesheim, Germany). The “blank-corrected normalized ratio” (a Viewlux specific readout, similar to the traditional ratio of the emissions at 665 nm and at 622 nm, in which blank and Eu-donor crosstalk are subtracted from the 665 nm signal before the ratio is calculated) was taken as the measure for the amount of phosphorylated substrate. The data were normalised (enzyme reaction without inhibitor=0% inhibition, all other assay components but no enzyme=100% inhibition).

Chain of human kinase Mps-1 (P33981 whole entry): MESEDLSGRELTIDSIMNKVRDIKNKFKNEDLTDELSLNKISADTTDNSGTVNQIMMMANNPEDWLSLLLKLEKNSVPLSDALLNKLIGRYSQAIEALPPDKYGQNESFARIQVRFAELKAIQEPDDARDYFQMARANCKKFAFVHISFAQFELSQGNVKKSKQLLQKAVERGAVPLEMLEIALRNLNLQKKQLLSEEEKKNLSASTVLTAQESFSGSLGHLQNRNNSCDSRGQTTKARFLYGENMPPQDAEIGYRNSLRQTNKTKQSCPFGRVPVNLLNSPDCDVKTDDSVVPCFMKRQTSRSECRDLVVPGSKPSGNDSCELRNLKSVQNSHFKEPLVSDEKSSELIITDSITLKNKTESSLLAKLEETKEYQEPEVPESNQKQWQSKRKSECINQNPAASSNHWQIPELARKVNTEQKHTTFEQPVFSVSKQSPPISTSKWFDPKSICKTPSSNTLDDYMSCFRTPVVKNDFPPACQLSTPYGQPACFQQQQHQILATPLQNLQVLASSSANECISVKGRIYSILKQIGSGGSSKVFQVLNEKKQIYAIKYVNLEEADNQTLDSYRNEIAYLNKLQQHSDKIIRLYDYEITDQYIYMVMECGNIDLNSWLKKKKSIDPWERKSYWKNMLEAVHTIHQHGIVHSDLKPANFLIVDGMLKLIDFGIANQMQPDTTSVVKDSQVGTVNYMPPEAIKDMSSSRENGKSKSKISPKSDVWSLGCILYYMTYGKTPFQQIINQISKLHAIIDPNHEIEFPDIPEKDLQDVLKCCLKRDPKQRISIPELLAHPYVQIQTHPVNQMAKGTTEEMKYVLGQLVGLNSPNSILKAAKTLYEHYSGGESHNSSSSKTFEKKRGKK

`COc1ccc(NC(=O)c2c(C)nsc2Nc2cc(C#N)ccn2)cn1` [Example 25, 5-[(4-Cyanopyridin-2-yl)amino]-N-(6-methoxypyridin-3-yl)-3-methyl-1,2-thiazole-4-carboxamide]: the IC50 was over 10000 nM in assay [1] and over 20 µM in assay [2].
As for `CCOC(=O)c1sc(Nc2snc(C)c2C(=O)Nc2ccccc2CC)nc1C` [Example 26, Ethyl 2-({4-[(2-ethylphenyl)carbamoyl]-3-methyl-1,2-thiazol-5-yl}amino)-4-methyl-1,3-thiazole-5-carboxylate], the IC50 in assay [1] was 4400 nM; in assay [2], over 20 µM.
For the compound `Cc1nsc(Nc2cc(C#N)ccn2)c1C(=O)Nc1ccc(F)c(F)c1` [Example 27, 5-[(4-Cyanopyridin-2-yl)amino]-N-(3,4-difluorophenyl)-3-methyl-1,2-thiazole-4-carboxamide], the IC50 is 2000 nM in assay [1] and over 20 µM in assay [2].
Regarding `Cc1nsc(Nc2ccc(C#N)cn2)c1C(=O)Nc1ccc(F)c(F)c1` [Example 28, 5-[(5-Cyanopyridin-2-yl)amino]-N-(3,4-difluorophenyl)-3-methyl-1,2-thiazole-4-carboxamide], the IC50 was 1600 nM in assay [1] and over 20 µM in assay [2].
For `CCOC(=O)c1cnc(Nc2snc(C)c2C(=O)Nc2ccc(OC)nc2)s1` [Example 29, Ethyl 2-({4-[(6-methoxypyridin-3-yl)carbamoyl]-3-methyl-1,2-thiazol-5-yl}amino)-1,3-thiazole-5-carboxylate], the IC50 in assay [1] is 2800 nM; in assay [2], over 20 µM.
Take `CCOC(=O)c1sc(Nc2snc(C)c2C(=O)Nc2ccc(OC)nc2)nc1C` [Example 30, Ethyl 2-({4-[(6-methoxypyridin-3-yl)carbamoyl]-3-methyl-1,2-thiazol-5-yl}amino)-4-methyl-1,3-thiazole-5-carboxylate]: the IC50 is 1600 nM in assay [1] and over 20 µM in assay [2].
With `COC(=O)c1ccc(Nc2snc(C)c2C(=O)Nc2ccc(OC)nc2)nc1` [Example 31, Methyl 6-({4-[(6-methoxypyridin-3-yl)carbamoyl]-3-methyl-1,2-thiazol-5-yl}amino)-nicotinate], the IC50 in assay [1] is over 10000 nM; in assay [2], over 20 µM.
With `COC(=O)c1cnc(Nc2snc(C)c2C(=O)Nc2ccc(OC)nc2)cn1` [Example 32, Methyl 5-({4-[(6-methoxypyridin-3-yl)carbamoyl]-3-methyl-1,2-thiazol-5-yl}amino)-pyrazine-2-carboxylate], the IC50 in assay [1] was 8300 nM; in assay [2], over 20 µM.
Turning to `CCc1ccccc1NC(=O)c1c(C)nsc1Nc1cnc2cccc(C)c2n1` [Example 33, N-(2-Ethylphenyl)-3-methyl-5-[(8-methylquinoxalin-2-yl)amino]-1,2-thiazole-4-carboxamide], the IC50 in assay [1] was 2200 nM; in assay [2], over 20 µM.
Consider `CCc1ccccc1NC(=O)c1c(C)nsc1Nc1nccnc1C#N` [Example 34, 5-[(3-Cyanopyrazin-2-yl)amino]-N-(2-ethylphenyl)-3-methyl-1,2-thiazole-4-carboxamide], for which the IC50 in assay [1] was 6700 nM; in assay [2], over 20 µM.
As for `CCc1ccccc1NC(=O)c1c(C)nsc1Nc1nc(C)nc2ccccc12` [Example 35, N-(2-Ethylphenyl)-3-methyl-5-[(2-methylquinazolin-4-yl)amino]-1,2-thiazole-4-carboxamide], the IC50 was 1200 nM in assay [1] and over 20 µM in assay [2].
Turning to `COc1ccc(NC(=O)c2c(C)nsc2Nc2ncccc2C#N)cn1` [Example 36, 5-[(3-Cyanopyridin-2-yl)amino]-N-(6-methoxypyridin-3-yl)-3-methyl-1,2-thiazole-4-carboxamide], the IC50 was 9900 nM in assay [1] and over 20 µM in assay [2].
In the case of `COc1ccc(NC(=O)c2c(C)nsc2Nc2cccc(C#N)n2)cn1` [Example 37, 5-[(6-Cyanopyridin-2-yl)amino]-N-(6-methoxypyridin-3-yl)-3-methyl-1,2-thiazole-4-carboxamide], the IC50 in assay [1] was over 10000 nM; in assay [2], over 20 µM.
Take `CCc1ccccc1NC(=O)c1c(C)nsc1Nc1nc(C)nc2sccc12` [Example 38, N-(2-Ethylphenyl)-3-methyl-5-[(2-methylthieno[2,3-d]pyrimidin-4-yl)amino]-1,2-thiazole-4-carboxamide]: the results for the IC50 in assay [1] and in assay [2] were 5300 nM and over 20 µM, respectively.
As for `COc1ccc(NC(=O)c2c(C)nsc2Nc2ccc(C#N)cn2)cn1` [Example 39, 5-[(5-Cyanopyridin-2-yl)amino]-N-(6-methoxypyridin-3-yl)-3-methyl-1,2-thiazole-4-carboxamide], the figures for the IC50 in assay [1] and in assay [2] were 6700 nM and over 20 µM, respectively.
On to `Cc1nsc(Nc2cnc3ccccc3n2)c1C(=O)Nc1ccc(Cl)c(F)c1` [Example 40, N-(4-Chloro-3-fluorophenyl)-3-methyl-5-(quinoxalin-2-ylamino)-1,2-thiazole-4-carboxamide], for which the figures for the IC50 in assay [1] and in assay [2] were 560 nM and over 20 µM, respectively.
As to `CCc1ccccc1NC(=O)c1c(C)nsc1Nc1cnc2ccc(Cl)cc2n1` [Example 41, 5-[(7-Chloroquinoxalin-2-yl)amino]-N-(2-ethylphenyl)-3-methyl-1,2-thiazole-4-carboxamide], the IC50 in assay [1] was 1300 nM; in assay [2], over 20 µM.
In the same order, the values of `COc1ccc(NC(=O)c2c(C)nsc2Nc2cnc3ccc(Cl)cc3n2)cn1` [Example 42, 5-[(7-Chloroquinoxalin-2-yl)amino]-N-(6-methoxypyridin-3-yl)-3-methyl-1,2-thiazole-4-carboxamide] are 1200 nM and over 20 µM.
In the same order, the values of `COc1ccc(NC(=O)c2c(C)nsc2Nc2cnc3c(F)c(F)ccc3n2)cn1` [Example 43, 5-[(5,6-Difluoroquinoxalin-2-yl)amino]-N-(6-methoxypyridin-3-yl)-3-methyl-1,2-thiazole-4-carboxamide] are 420 nM and over 20 µM.
As to `COc1ccc(NC(=O)c2c(C)nsc2Nc2cnc3ccc(F)cc3n2)cn1` [Example 44, 5-[(7-Fluoroquinoxalin-2-yl)amino]-N-(6-methoxypyridin-3-yl)-3-methyl-1,2-thiazole-4-carboxamide], the IC50 in assay [1] was 2400 nM; in assay [2], over 20 µM.
As for `COc1ccc(NC(=O)c2c(C)nsc2Nc2cnc3cc(C(F)(F)F)ccc3n2)cn1` [Example 45, N-(6-Methoxypyridin-3-yl)-3-methyl-5-{[6-(trifluoromethyl)quinoxalin-2-yl]amino}-1,2-thiazole-4-carboxamide], the IC50 is 340 nM in assay [1] and over 20 µM in assay [2].

These data come from patent US9682995B2, “Amino-substituted isothiazoles” (BAYER PHARMA AKTIENGESELLSCHAFT, priority 2013, dated 2017).
